Consider 21 molecules from patent US20260085062A1, “NOVEL COMPOUNDS AS CK2 INHIBITORS” (Cambridge Enterprise Limited, priority 2022, published 2026).

pIC50: −log10 of the molar value.

One assay deals with T1, CLK2 (Homo sapiens, UniProt P49760).
T1 construct: purchased Carna Biosciences 04-127
In words: Biochemical assay for inhibitors of CLK2 kinase activity (ADP-Glo). Conditions: 20 nM CLK2, 50 μM peptide substrate, 100 μM ATP, read-out: Assay 2: CLK2 Enzyme IC50. (In general: In ADP-Glo the light output rises with the ADP produced.)

Another assay addresses T2, intracellular CK2α (Homo sapiens, UniProt P19784).
T2 construct: host or cells: HCT116 (ATCC CCL-247)
Put plainly: Cell-based NanoBRET assay for inhibitor binding to intracellular CK2α. Conditions: HCT116 cells transiently transfected with CSNK2A2-NanoLuc fusion vector; Tracer K-5; 2 h; read-out: Assay 3: NanoBRET ™ assay for binding to intracellular CK2α. A digest of the protocol:
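Living cells expressing NanoLuc-CK2α fusion were given a fixed tracer concentration, and compounds competitively displaced the reversibly bound tracer. Donor (450 nm) and acceptor (610 or 630 nm) emissions were read; BRET ratio = (acceptor/donor)×1,000, giving apparent intracellular affinity.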
On the technique in general: BRET reads energy transfer from a luciferase to a nearby fluorophore.

For another assay, the target named is T3, CK2α (Homo sapiens, UniProt P68400).
T3 construct: CK2α (residues 2-329) was produced in Escherichia coli BL21 (DE3) for kinase activity screening; His6 (N, cleaved yes); made in house; host or cells: Escherichia coli BL21 (DE3)
T3 sequence (P68400 2-329): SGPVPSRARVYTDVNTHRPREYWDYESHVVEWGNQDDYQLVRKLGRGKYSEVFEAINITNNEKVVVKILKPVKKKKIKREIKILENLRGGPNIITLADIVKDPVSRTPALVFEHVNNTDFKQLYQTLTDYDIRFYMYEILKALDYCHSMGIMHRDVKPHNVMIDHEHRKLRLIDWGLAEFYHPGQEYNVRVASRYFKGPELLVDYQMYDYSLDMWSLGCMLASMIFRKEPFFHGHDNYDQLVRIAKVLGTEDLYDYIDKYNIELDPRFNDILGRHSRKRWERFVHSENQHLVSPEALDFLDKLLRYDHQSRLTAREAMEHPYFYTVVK
In words: Biochemical assay for inhibitors of CK2α kinase activity (ADP-Glo). The settings on record: 0.2 nM CK2α, 50 μM peptide substrate, 15 μM ATP, read-out: Assay 1: CK2α Enzyme IC50.

T1 sequence (P49760 whole entry): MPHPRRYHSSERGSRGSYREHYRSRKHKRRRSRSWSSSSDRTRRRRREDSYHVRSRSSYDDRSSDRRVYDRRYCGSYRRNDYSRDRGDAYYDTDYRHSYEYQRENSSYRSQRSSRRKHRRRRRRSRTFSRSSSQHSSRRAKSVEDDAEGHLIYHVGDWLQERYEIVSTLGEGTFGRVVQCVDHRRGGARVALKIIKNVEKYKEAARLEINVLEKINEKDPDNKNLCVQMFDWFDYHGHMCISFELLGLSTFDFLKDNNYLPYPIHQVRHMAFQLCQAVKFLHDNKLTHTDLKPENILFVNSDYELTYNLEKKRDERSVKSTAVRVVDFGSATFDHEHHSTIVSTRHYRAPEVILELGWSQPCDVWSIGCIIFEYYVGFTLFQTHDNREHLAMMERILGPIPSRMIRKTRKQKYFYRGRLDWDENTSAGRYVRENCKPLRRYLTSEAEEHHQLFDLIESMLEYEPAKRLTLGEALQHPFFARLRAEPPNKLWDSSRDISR
T2 sequence (P19784 whole entry): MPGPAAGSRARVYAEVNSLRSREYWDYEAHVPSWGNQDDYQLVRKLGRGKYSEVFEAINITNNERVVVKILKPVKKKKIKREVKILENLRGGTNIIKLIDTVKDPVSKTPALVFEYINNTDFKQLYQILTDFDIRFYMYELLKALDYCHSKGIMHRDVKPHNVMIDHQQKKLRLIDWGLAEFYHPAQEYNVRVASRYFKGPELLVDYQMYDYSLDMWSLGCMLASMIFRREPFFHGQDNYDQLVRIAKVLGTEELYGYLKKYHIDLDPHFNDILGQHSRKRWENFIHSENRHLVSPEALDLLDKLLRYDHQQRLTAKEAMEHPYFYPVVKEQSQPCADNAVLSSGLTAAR

As for `Cc1c(-c2ccncc2)cc(NCCOCCCCNCc2cc(F)c(OC(F)(F)F)c(F)c2)c2cn[nH]c12` [Example 179, N-(2-(4-((3,5-difluoro-4-(trifluoromethoxy)benzyl)amino)butoxy)ethyl)-7-methyl-6-(pyridin-4-yl)-1H-indazol-4-amine], the pIC50 on CLK2 was 5.71; on intracellular CK2α it was 5.84; on CK2α, 7.37.

Regarding `O=C(CCNCc1ccc(OC(F)(F)F)c(Cl)c1)NCCCNc1cc(-c2ccncc2)c(F)c2[nH]ncc12` [Example 180, 3-((3-chloro-4-(trifluoromethoxy)benzyl)amino)-N-(3-((7-fluoro-6-(pyridin-4-yl)-1H-indazol-4-yl)amino)propyl)propanamide], the pIC50 was 6.72 on CLK2, 7.00 on intracellular CK2α and 8.43 at CK2α.

Take `O=C(CCNCc1ccc(OC(F)(F)F)c(Cl)c1)NCCCNc1cc(-n2cnnc2)c(Cl)c2[nH]ncc12` [Example 181, 3-((3-chloro-4-(trifluoromethoxy)benzyl)amino)-N-(3-((7-chloro-6-(4H-1,2,4-triazol-4-yl)-1H-indazol-4-yl)amino)propyl)propanamide]: the pIC50 was 6.35 on CLK2, 4.94 at intracellular CK2α and 7.77 on CK2α.

Turning to `Fc1cc(CNCCCCOCCNc2cc(-n3cnnc3)c(Cl)c3[nH]ncc23)cc(F)c1OC(F)(F)F` [Example 182, 7-chloro-N-(2-(4-((3,5-difluoro-4-(trifluoromethoxy)benzyl)amino)butoxy)ethyl)-6-(4H-1,2,4-triazol-4-yl)-1H-indazol-4-amine], the pIC50 on CLK2 was 5.74; on intracellular CK2α it was 5.27; on CK2α, 7.53.

`O=C(CCNCc1ccc(OC(F)(F)F)c(Cl)c1)NCCCNc1cc(-c2ncns2)cc2[nH]ncc12` [Example 183, N-(3-((6-(1,2,4-thiadiazol-5-yl)-1H-indazol-4-yl)amino)propyl)-3-((3-chloro-4-(trifluoromethoxy)benzyl)amino)propanamide]: the pIC50 on CLK2 was 6.04; on intracellular CK2α it was 6.84; at CK2α, 8.62.

On to `Nc1cc(-c2cc(NCCCNC(=O)CCNCc3ccc(OC(F)(F)F)c(Cl)c3)c3cn[nH]c3c2)ccn1` [Example 184, N-(3-((6-(2-aminopyridin-4-yl)-1H-indazol-4-yl)amino)propyl)-3-((3-chloro-4-(trifluoromethoxy)benzyl)amino)propanamide], for which the pIC50 on CLK2 is 7.77; on intracellular CK2α it was 6.75; at CK2α it was 9.03.

Regarding `O=C(CCNCc1ccc(OC(F)(F)F)c(Cl)c1)NCCCNc1cc(-c2ccncc2)nc2[nH]ncc12` [Example 185, 3-((3-chloro-4-(trifluoromethoxy)benzyl)amino)-N-(3-((6-(pyridin-4-yl)-1H-pyrazolo[3,4-b]pyridin-4-yl)amino)propyl)propanamide], the pIC50 on CLK2 is 6.10; at intracellular CK2α, 6.97; on CK2α, 9.12.

`Fc1cc(CNCCCCOCCNc2c(Cl)c(-n3cnnc3)cc3[nH]ncc23)cc(F)c1OC(F)(F)F` [Example 186, 5-chloro-N-(2-(4-((3,5-difluoro-4-(trifluoromethoxy)benzyl)amino)butoxy)ethyl)-6-(4H-1,2,4-triazol-4-yl)-1H-indazol-4-amine]: the pIC50 on CLK2 is 5.32; at intracellular CK2α it was under 4.31; at CK2α it was 6.14.

As for `N#Cc1cc(-c2cc(NCCCNC(=O)CCNCc3ccc(OC(F)(F)F)c(Cl)c3)c3cn[nH]c3c2)cnn1` [Example 187, 3-((3-chloro-4-(trifluoromethoxy)benzyl)amino)-N-(3-((6-(6-cyanopyridazin-4-yl)-1H-indazol-4-yl)amino)propyl)propanamide], the values for the pIC50 on CLK2, at intracellular CK2α and on CK2α were 5.33, 6.02 and 8.06, respectively.

Take `Nc1cc(-c2cc(NCCCNC(=O)CCNCc3ccc(OC(F)(F)F)c(Cl)c3)c3cn[nH]c3c2)cnn1` [Example 188, N-(3-((6-(6-aminopyridazin-4-yl)-1H-indazol-4-yl)amino)propyl)-3-((3-chloro-4-(trifluoromethoxy)benzyl)amino)propanamide]: the pIC50 is 7.28 on CLK2, 6.29 at intracellular CK2α and 9.30 on CK2α.

`O=C(CCNCc1ccc(OC(F)(F)F)c(Cl)c1)NCCCNc1cc(-c2ncon2)cc2[nH]ncc12` [Example 189, N-(3-((6-(1,2,4-oxadiazol-3-yl)-1H-indazol-4-yl)amino)propyl)-3-((3-chloro-4-(trifluoromethoxy)benzyl)amino)propanamide]: the pIC50 on CLK2 was 5.46; at intracellular CK2α, 5.79; at CK2α it was 7.72.

On to `CNc1n[nH]c2cc(-n3cnnc3)cc(NCCOCCCCNCc3cc(F)c(OC(F)(F)F)c(F)c3)c12` [Example 190, N4-(2-(4-((3,5-difluoro-4-(trifluoromethoxy)benzyl)amino)butoxy)ethyl)-N3-methyl-6-(4H-1,2,4-triazol-4-yl)-1H-indazole-3,4-diamine], for which the pIC50 on CLK2 is 5.96; on intracellular CK2α it was 7.13; at CK2α, 8.84.

Take `CNc1n[nH]c2cc(-n3cnnc3)cc(NCCCNC(=O)CCNCc3ccc(OC(F)(F)F)c(Cl)c3)c12` [Example 191, 3-((3-chloro-4-(trifluoromethoxy)benzyl)amino)-N-(3-((3-(methylamino)-6-(4H-1,2,4-triazol-4-yl)-1H-indazol-4-yl)amino)propyl)propanamide]: the values for the pIC50 on CLK2, at intracellular CK2α and on CK2α were 6.88, 6.07 and 9.24, respectively.

For the molecule `C[C@@H](CCCOCCNc1cc(-n2cnnc2)cc2[nH]ncc12)NCc1cc(CO)cc(OC(F)(F)F)c1` [Example 192, (S)-(3-(((5-(2-((6-(4H-1,2,4-triazol-4-yl)-1H-indazol-4-yl)amino)ethoxy)pentan-2-yl)amino)methyl)-5-(trifluoromethoxy)phenyl)methanol], the pIC50 was 6.18 at CLK2, 6.42 at intracellular CK2α and 7.97 on CK2α.

Consider `C[C@@H](CCCOCCNc1cc(-c2cnnc(O)c2)cc2[nH]ncc12)NCc1cc(CO)cc(OC(F)(F)F)c1` [Example 193, (S)-5-(4-((2-((4-((3-(hydroxymethyl)-5-(trifluoromethoxy)benzyl)amino)pentyl)oxy)ethyl)amino)-1H-indazol-6-yl)pyridazin-3-ol], for which the pIC50 on CLK2 is 6.45; at intracellular CK2α, 7.06; on CK2α, 8.92.

With `C[C@@H](CCCOCCNc1cc(-c2cnnc(O)c2)cc2[nH]ncc12)NCc1cc(CC#N)cc(OC(F)(F)F)c1` [Example 194, (S)-2-(3-(((5-(2-((6-(6-hydroxypyridazin-4-yl)-1H-indazol-4-yl)amino)ethoxy)pentan-2-yl)amino)methyl)-5-(trifluoromethoxy)phenyl)acetonitrile], the figures for the pIC50 at CLK2, at intracellular CK2α and on CK2α were 6.71, 7.83 and 9.12, respectively.

In the case of `C[C@@H](CCCOCCNc1cc(-c2cnnc(O)c2)cc2[nH]ncc12)NCc1cc(Cc2cnco2)cc(OC(F)(F)F)c1` [Example 195, (S)-5-(4-((2-((4-((3-(oxazol-5-ylmethyl)-5-(trifluoromethoxy)benzyl)amino)pentyl)oxy)ethyl)amino)-1H-indazol-6-yl)pyridazin-3-ol], the results for the pIC50 on CLK2, on intracellular CK2α and at CK2α were 6.64, 7.67 and 9.39, respectively.

`C[C@@H](CCCOCCNc1cc(-c2cnoc2)cc2[nH]ncc12)NCc1cc(OC(F)(F)F)cc(C(N)=O)c1` [Example 196, (S)-3-(((5-(2-((6-(isoxazol-4-yl)-1H-indazol-4-yl)amino)ethoxy)pentan-2-yl)amino)methyl)-5-(trifluoromethoxy)benzamide]: the pIC50 on CLK2 is 6.52; on intracellular CK2α it was 7.26; at CK2α, 7.91.

For `O=C(O)c1cc(NCCOCCCCNCc2cc(F)c(OC(F)(F)F)c(F)c2)c2cn[nH]c2c1` [Example 197, 4-((2-(4-((3,5-difluoro-4-(trifluoromethoxy)benzyl)amino)butoxy)ethyl)amino)-1H-indazole-6-carboxylic acid], the pIC50 on CLK2 was under 4.30; on intracellular CK2α, under 5.52; on CK2α, under 6.00.

`O=C(O)Cc1cc(NCCOCCCCNCc2cc(F)c(OC(F)(F)F)c(F)c2)c2cn[nH]c2c1` [Example 198, 2-(4-((2-(4-((3,5-difluoro-4-(trifluoromethoxy)benzyl)amino)butoxy)ethyl)amino)-1H-indazol-6-yl)acetic acid]: the values for the pIC50 on CLK2, at intracellular CK2α and at CK2α were under 4.30, under 5.52 and 7.14, respectively.

Regarding `OCCOc1cc(CNC2CC(COCCOc3cc(-c4cnnc(O)c4)cc4[nH]ncc34)C2)cc(OC(F)(F)F)c1` (stereo not drawn) [Example 199, 5-(4-(2-((3-((3-(2-hydroxyethoxy)-5-(trifluoromethoxy)benzyl)amino)cyclobutyl)methoxy)ethoxy)-1H-indazol-6-yl)pyridazin-3-ol], the pIC50 is 5.92 on CLK2, 5.71 on intracellular CK2α and 7.67 at CK2α.
